# pIC50: −log10 of the molar value. Read-outs that look alike come from different tables or passages of the source.
# Columns and labels:
# HIV-1 IIIB = experiment: MAGI-CXCR4 HIV-1 IIIB antiviral assay (β-galactosidase reporter); details: for MAGI HIV IIIB % Inhibition at 1 uM: 1 uM compound; for T.I. (TC50/IC50): therapeutic index, MAGI assay; for inhibition at 1 µM: MAGI, read-out: MAGI HIV IIIB % Inhibition at 1 uM, 1 uM compound
# Description: Example 2: MAGI-CXCR4 HIV-1 IIIB Assay Procedure
# (§1) MAGI-CXC4 cells (obtained from the NIH AIDS Research and Reference Reagent Program) are passed into T-75 flasks prior to use in the antiviral assay. MAGI-CXCR4 cells are derived from HeLa-CD4-LTR-β-gal cells. The cells have been engineered to express high levels of CD4 and […] and contain one copy of the HIV-1 LTR promoter driving expression of the β-galactosidase gene upon HIV-1 Tat transactivation. On the day preceding the assay, the cells are plated at 1.0×10^4 per well and incubated at 37° C. overnight. Total cell and viability quantification is performed using a hemacytometer and trypan blue exclusion.
# The virus used for these tests is the […](CXCR4-tropic strain HIV-1NL4-3 is also available for use). This virus was obtained from the NIH AIDS Research and Reference Reagent Program and was grown in Ghost Hi5/MAGI-CXCR4 co-cultures for the production of stock virus pools. For each assay, a pre-titered aliquot of virus is removed from the freezer (−80° C.) and allowed to thaw slowly to room temperature in a biological safety cabinet. The virus is re-suspended and diluted into tissue culture medium such that the amount of virus added to each well in a volume of […] is approximately ten TCID50/well (˜0.001 TCID50/cell).
# (§2) Compounds are evaluated at one or two concentrations (e.g., for initial screening) or in dose-response at six concentrations (triplicate wells/concentration). On the day of assay setup, compound dilutions are prepared at two-times (2×) the final required concentrations. Media used for plating the cells the day before assay setup is aspirated from the plates and replaced with 50 μL of the 2× compounds, followed by the addition of 50 μL of virus, which dilutes the compounds to the final 1× concentrations. Cell control wells (cells only) and virus control wells (cells plus virus) are included on each assay plate. Identical uninfected assay plates (virus replaced with media) are prepared for parallel cytotoxicity testing. The cultures are incubated for 48 hours or 6 days (depending on compound or client requirements) after which antiviral efficacy is measured as the inhibition of β-galactosidase reporter expression and cytotoxicity is monitored by MTS staining.
# A chemiluminescent endpoint is used to determine the extent of β-galactosidase expression as a measure of HIV-1 infection of the cells. Once HIV-1 has attached and entered the MAGI-CXCR4 cells, HIV-1 Tat transactivates the LTR dependent β-galactosidase enzyme to express higher than normal levels of β-galactosidase. Thus there is a direct relationship between the level of HIV-1 infection and the level of β-galactosidase detected in the cells. At 48 hours post infection, plates are aspirated and PBS is added to each well. Gal-screen reagent (Tropix, Bedford, Mass.) is then added per the manufacturer's instructions for chemiluminescent detection of β-galactosidase activity and incubated at room temperature for 90 minutes. The resulting chemiluminescence signal is then read using a Microbeta Trilux luminescence reader (PerkinElmer/Wallac).
# (§3) At assay termination, the cytotoxicity assay plates are stained with the soluble tetrazolium-based dye MTS (CellTiter Reagent, Promega) to determine cell viability and quantify compound toxicity. […] At termination of the assay, 15 μL of MTS reagent is added per well. The microtiter plates are then incubated 1.5-2 hrs at 37° C.; the incubation interval was chosen based on empirically determined times for optimal dye reduction. The plates are read spectrophotometrically at 490/650 nm with a Molecular Devices Vmax plate reader. Percent inhibition of virus replication and percent cell viability at each concentration are calculated using an in-house computer program.
# MAGI-CXCR4 cells = experiment: in vitro
# Procedure: as §1, §2, §3
# HIV IIIB virus = experiment: Peripheral blood mononuclear cell HIV IIIB assay; details: for pIC50: read-out: PBMC-HIV IC50; for IC90: read-out: PBMC-HIV IC90; for T.I. (TC50/IC50): therapeutic index
# Procedure: (§4) To test efficacy of selected compounds, peripheral mononuclear cell assays are performed. Cells are infected for 6 days with live HIV IIIB virus and PBM cells are run in parallel for cytotoxicity testing, with or without selected agents. Efficacy of compounds as antagonists of the sdf-1 ligand to CXCR4 receptors was determined in I^125 labeled sdf-1 displacement assays from CXCR4-expressing CEM cells are performed.
# in vitro [1] = details: human
# Procedure: as §1, §2, §3
# in vitro [2] = details: human; remark: listed apart in the source
# Procedure: as §4
# PBM cells = experiment: in vitro
# Procedure: as §4
# [3] = read-out: HIV IC90, MAGI-CXCR4 cells, further testing
# [4] = PBMC infected 6 days with live HIV IIIB
# [5] = Human immunodeficiency virus 1, IIIB, MAGI-CXCR4 cells
# [6] = Human immunodeficiency virus 1, IIIB, read-out: HIV IC90, MAGI-CXCR4 cells, further testing
# [7] = Human immunodeficiency virus 1, IIIB, PBMC, 144 h
# [8] = read-out: HIV IC50, MAGI-CXCR4 cells, further testing
molecule,measurement,setting,value
NCCCCN(CC1CN(Cc2ccccc2)CCN1)C1CCCc2cccnc21 (stereo not drawn) [Compound 8],MAGI HIV IIIB % Inhibition at 1 uM,HIV-1 IIIB; MAGI-CXCR4 cells,95%
same,IC90,HIV-1 IIIB; [3],720 nM
same,T.I. (TC50/IC50),HIV-1 IIIB,>67
same,CC50,MAGI-CXCR4 cells; human,> 10000 nM
Maraviroc,pIC50,HIV IIIB virus; [4],< 5.70
same,IC90,HIV IIIB virus; [4],> 2000 nM
CN(CC1Cc2ccccc2CN1)C1CCCc2cccnc21 (stereo not drawn),inhibition at 1 µM,HIV-1 IIIB; [5],30%
"c1cc(CN2CCCNCCNCCCNCC2)ccc1CN1CCCNCCNCCCNCC1 [AMD3100, reference compound]",pIC50,"HIV-1 IIIB; Human immunodeficiency virus 1, IIIB, read-out: HIV IC50, MAGI-CXCR4 cells, further testing",8.70
same,IC90,HIV-1 IIIB; [6],7 nM
same,T.I. (TC50/IC50),HIV-1 IIIB,>5000
same,CC50,in vitro [1],> 10000 nM
same,pIC50,HIV IIIB virus; [7],7.49
same,IC90,HIV IIIB virus; [7],134 nM
same,T.I. (TC50/IC50),HIV IIIB virus; PBMC,>150
same,CC50 at 6 days,in vitro [2],> 5000 nM
NCCCCN(CC1CN(Cc2ccccc2)CCN1)C1CCCc2cccnc21 (stereo not drawn) [Compound 9],inhibition at 1 µM,HIV-1 IIIB; [5],92%
same,IC90,HIV-1 IIIB; [6],440 nM
same,pIC50,HIV-1 IIIB; [8],7.52
same,pIC50,"HIV-1 IIIB; read-out: MAGI HIV IIIB IC50, MAGI-CXCR4 cells",7.52
same,T.I. (TC50/IC50),HIV-1 IIIB,>333
same,CC50,in vitro [1],> 10000 nM
NCCCCN(C[C@@H]1CC(OCc2ccccc2)CN1)C1CCCc2cccnc21 (stereo partly drawn),inhibition at 1 µM,HIV-1 IIIB; [5],0%
NCCCCN(CC1CCc2ccccc2N1)C1CCCc2cccnc21 (stereo not drawn) [drawing 41],MAGI HIV IIIB % Inhibition at 1 uM,HIV-1 IIIB; MAGI-CXCR4 cells,31% @ 1 uM
O=C1c2ccccc2C(=O)N1CCCCN(CC1Cc2ccccc2CN1)C1CCCc2cccnc21 (stereo not drawn),inhibition at 1 µM,HIV-1 IIIB; [5],25%
NCCCCN(C[C@@H]1CC(OCCCN)CN1C(=O)OCc1ccccc1)C1CCCc2cccnc21 (stereo partly drawn),inhibition at 1 µM,HIV-1 IIIB; [5],0%
"Cc1ccc(-c2ccc3c(c2)C=C(C(=O)Nc2ccc(C[N+](C)(C)C4CCOCC4)cc2)CCC3)cc1 [TAK779, reference compound]",pIC50,HIV-1 IIIB; [8],< 5.00
same,IC90,HIV-1 IIIB; [3],> 10000 nM
same,CC50,"MAGI-CXCR4 cells; read-out: TC50, MTS staining, uninfected MAGI-CXCR4 cells",> 10000 nM
NCCCCN(C[C@@H]1CC(c2ccccc2)CN1)C1CCCc2cccnc21 (stereo partly drawn),inhibition at 1 µM,HIV-1 IIIB; [5],20%
NCCCCN(CC1CCc2ccccc2N1)C1CCCc2cccnc21 (stereo not drawn) [drawing 40],inhibition at 1 µM,HIV-1 IIIB; [5],42%
CN(CC1CN(Cc2ccccc2)CCN1)C1CCCc2cccnc21 (stereo not drawn),inhibition at 1 µM,HIV-1 IIIB; [5],41%
CN(C[C@@H]1CC(OCCCN)CN1C(=O)OCc1ccccc1)C1CCCc2cccnc21 (stereo partly drawn),inhibition at 1 µM,HIV-1 IIIB; [5],0%
Cc1cn([C@H]2C[C@H](N=[N+]=[N-])[C@@H](CO)O2)c(=O)[nH]c1=O [AZT],pIC50,HIV IIIB virus; [4],8.40
same,IC90,HIV IIIB virus; [4],70 nM
same,T.I. (TC50/IC50),HIV IIIB virus; PBMC,>240
same,CC50,PBM cells,> 1000 nM

# — patent US10016408B2, “Chemokine CXCR4 receptor modulators and uses related thereto” (EMORY UNIVERSITY, priority 2010, dated 2018)
